Data on 17 molecules can be found in publication PMC9064011 (RSC Advances, 2019).

The structures appear in SMILES notation.

One data set deals with MCF-7 cells. Briefly: MTT assay for tumor cell growth inhibition, MCF-7. Particulars: Homo sapiens, MCF7, 48 h, read-out: IC50 MCF-7. It is filed as cell-based.
The test system of the next data set is HepG2 cells. Briefly: MTT assay for tumor cell growth inhibition, HepG2. Type of data set: cell-based. Particulars: Homo sapiens, HepG2, 48 h, read-out: IC50 HepG2. On the technique in general: Tetrazolium dyes change colour on reduction, which living cells bring about.
In a further data set the test system is L-O2 cells. Briefly: MTT assay for cell growth inhibition, L-O2. Type of data set: cell-based. As to conditions: Homo sapiens, L02, 48 h, read-out: IC50 L-O2.
A further data set concerns HeLa cells. Briefly: MTT cell growth inhibition. It is filed as cell-based. Particulars: Homo sapiens.
Data set [1] relates to Hypoxia Inducible Factor-1 (HIF-1) pathway. Briefly: cells. As to conditions: Homo sapiens, HeLa, 12 h, read-out: HRE IC50.
Data set [2] shares this test system. As to conditions: dual luciferase reporter system. In general terms: In a reporter assay the amount or activity of a reporter protein is the signal.
The next data set has as its system H322 cell. Particulars: previous work in our laboratory, ref unpublished; cited from earlier work.
For data set [3], the system named is hypoxia inducible factor-1 (HIF-1) transcription. As to conditions: dual luciferase reporter assay, previous work in our laboratory, ref unpublished; cited from earlier work.

The IC50 is the concentration that inhibits the measured activity by half. One may read the GI50 as the concentration giving 50% growth inhibition. With `COC(=O)c1c(C#Cc2ccc(OC)cc2)cccc1-c1ccc(OC)cc1` [Compound 1a, Methyl 4′-methoxy-3-((4-methoxyphenyl)ethynyl)-[1,1′-biphenyl]-2-carboxylate], the IC50 was greater than 100 µM with MCF-7 cells, greater than 100 µM in the data set on HepG2 cells, greater than 100 µM in the data set on L-O2 cells and 5.41 ± 1.1 µM in data set [1]. In addition, the GI50 in the data set with HeLa cells is greater than 100 µM.
As to `COc1ccc(C#Cc2cccc(-c3ccc(OC)cc3)c2C(=O)O)cc1` [Compound 1b, 4′-Methoxy-3-((4-methoxyphenyl)ethynyl)-[1,1′-biphenyl]-2-carboxylic acid], the IC50 in the data set on MCF-7 cells is greater than 100 µM; with HepG2 cells, greater than 100 µM; in the data set on L-O2 cells it was greater than 100 µM; in data set [1] it was 20.7 ± 2.5 µM. Also, in the data set on HeLa cells, the 50% growth inhibitory concentration (GI50) was greater than 100 µM.
Turning to `COc1ccc(C#Cc2cccc(-c3ccc(OC)cc3)c2C(=O)c2ccc(OC)cc2)cc1` [Compound 1c, (4′-Methoxy-3-((4-methoxyphenyl)ethynyl)-[1,1′-biphenyl]-2-yl)(4-methoxyphenyl)methanone], the results for the 50% inhibitory concentration (IC50) (in the data set with MCF-7 cells; in data set [1]) were 7.18 ± 1.2 µM and 2.36 ± 0.4 µM, respectively. Besides, the GI50 in the data set on HeLa cells is 3.75 ± 0.2 µM.
Take `COc1ccc(C(=O)c2c(C#Cc3ccc(O)cc3)cccc2-c2ccc(O)cc2)cc1` [Compound 1d, (4′-Hydroxy-3-((4-hydroxyphenyl)ethynyl)-[1,1′-biphenyl]-2-yl)(4-methoxyphenyl)methanone]: the IC50 in the data set on MCF-7 cells was found to be 51.2 ± 0.6 µM; in the data set with HepG2 cells it was 54.8 ± 1.9 µM; in the data set on L-O2 cells, 64 ± 1 µM; in data set [1] it was 9.52 ± 0.4 µM. Further, in the data set on HeLa cells, the concentration for 50% growth inhibition (GI50) came out at 44.81 ± 0.2 µM.
As for `O=c1oc(-c2ccc(O)cc2)cc2cccc(-c3ccc(O)cc3)c12` [Compound 1e, 3,8-Bis(4-hydroxyphenyl)-1H-isochromen-1-one], the IC50 with MCF-7 cells is 95.57 ± 0.4 µM; in the data set on HepG2 cells it was 55.5 ± 1.9 µM; in the data set with L-O2 cells it was 92.5 ± 2 µM; in data set [1], 13.7 ± 0.4 µM. In addition, the GI50 in the data set with HeLa cells turned out to be 86.31 ± 0.5 µM.
On the same counts, the results for `COC(=O)c1cc(C#Cc2ccc(OC)cc2)ccc1-c1ccc(OC)cc1` [Compound 2a, Methyl 4′-methoxy-4-((4-methoxyphenyl)ethynyl)-[1,1′-biphenyl]-2-carboxylate] are greater than 100 µM, greater than 100 µM, greater than 100 µM, 18.3 ± 1.6 µM and greater than 100 µM.
Consider `COc1ccc(C#Cc2ccc(-c3ccc(OC)cc3)c(C(=O)O)c2)cc1` [Compound 2b, 4′-Methoxy-4-((4-methoxyphenyl)ethynyl)-[1,1′-biphenyl]-2-carboxylic acid], for which the half-inhibitory concentration (IC50) is greater than 100 µM in the data set with MCF-7 cells, greater than 100 µM in the data set on HepG2 cells, greater than 100 µM with L-O2 cells and 15.6 ± 1.6 µM in data set [1]. The concentration for 50% growth inhibition (GI50) in the data set on HeLa cells is greater than 100 µM.
For the molecule `COc1ccc(C#Cc2ccc(-c3ccc(OC)cc3)c(C(=O)c3ccc(OC)cc3)c2)cc1` [Compound 2c, (4′-Methoxy-4-((4-methoxyphenyl)ethynyl)-[1,1′-biphenyl]-2-yl)(4-methoxyphenyl)methanone], the IC50 in the data set on MCF-7 cells was greater than 100 µM; in the data set with HepG2 cells it was greater than 100 µM; in the data set on L-O2 cells it was greater than 100 µM; in data set [1] it was 39.9 ± 3.1 µM. In addition, the GI50 with HeLa cells was greater than 100 µM.
For the molecule `COc1ccc(C(=O)c2cc(C#Cc3ccc(O)cc3)ccc2-c2ccc(O)cc2)cc1` [Compound 2d, (4′-Hydroxy-4-((4-hydroxyphenyl)ethynyl)-[1,1′-biphenyl]-2-yl)(4-methoxyphenyl)methanone], the IC50 with MCF-7 cells is 6.49 ± 0.1 µM; in the data set on HepG2 cells it was 24.99 ± 0.1 µM; with L-O2 cells it was 7.83 ± 1.2 µM; in data set [1], 4.47 ± 0.6 µM. In the data set on HeLa cells, this molecule gave a GI50 of 3.24 ± 0.1 µM.
Regarding `COc1ccc(C#Cc2ccc(-c3ccc(OC)cc3)c(C(O)(c3ccc(OC)cc3)c3ccc(OC)cc3)c2)cc1` [Compound 2e, (4′-Methoxy-4-((4-methoxyphenyl)ethynyl)-[1,1′-biphenyl]-2-yl)bis(4-methoxyphenyl)methanol], the IC50 was greater than 100 µM with MCF-7 cells, greater than 100 µM with HepG2 cells, greater than 100 µM with L-O2 cells and 20.8 ± 0.8 µM in data set [1]. The same molecule showed a GI50 in the data set on HeLa cells greater than 100 µM.
Regarding `CCCCC(O)(c1ccc(OC)cc1)c1cc(C#Cc2ccc(OC)cc2)ccc1-c1ccc(OC)cc1` (stereo not shown) [Compound 2f, 1-(4′-methoxy-4-((4-methoxyphenyl)ethynyl)-[1,1′-biphenyl]-2-yl)-1-(4-methoxyphenyl)pentan-1-ol], the 50% inhibitory concentration (IC50) with MCF-7 cells was greater than 100 µM; with HepG2 cells it was greater than 100 µM; with L-O2 cells, greater than 100 µM; in data set [1], 1.89 ± 0.4 µM. The molecule further came in with a 50% growth inhibitory concentration (GI50) in the data set on HeLa cells greater than 100 µM.
On to `COc1ccc(-c2ccc(C#Cc3ccc(O)cc3)cc2C(O)(c2ccc(OC)cc2)c2ccc(OC)cc2)cc1` [Compound 2g, 4-((2-(Hydroxybis(4-methoxyphenyl)methyl)-4′-methoxy-[1,1′-biphenyl]-4-yl)ethynyl)phenol], for which the IC50 in the data set on MCF-7 cells is 13 ± 0.7 µM; in the data set on HepG2 cells, 15.1 ± 0.6 µM; in the data set with L-O2 cells, 16.4 ± 1.3 µM; in data set [1], 8.1 ± 1.4 µM. In addition, halving of growth in the data set on HeLa cells (GI50) required 15.48 ± 0.1 µM.
`COc1ccc(C(O)(c2ccc(OC)cc2)c2cc(C#Cc3ccc(O)cc3)ccc2-c2ccc(O)cc2)cc1` [Compound 2h, 2′-(hydroxybis(4-methoxyphenyl)methyl)-4′-((4-hydroxyphenyl)ethynyl)-[1,1′-biphenyl]-4-ol]: the 50% inhibitory concentration (IC50) was found to be 11.9 ± 0.5 µM in the data set on MCF-7 cells, 11.8 ± 0.8 µM in the data set with HepG2 cells, 10.6 ± 1.1 µM in the data set with L-O2 cells and 2.52 ± 0.4 µM in data set [1]. In the data set on HeLa cells, this molecule yielded a GI50 of 10.8 ± 0.3 µM.
For `COc1ccc(C2(c3ccc(OC)cc3)c3cc(O)ccc3-c3ccc(C#Cc4ccc(O)cc4)cc32)cc1` [Compound 2i, 7-((4-Hydroxyphenyl)ethynyl)-9,9-bis(4-methoxy-phenyl)-9H-fluoren-2-ol], the 50% inhibitory concentration (IC50) came to 9.23 µM with MCF-7 cells, 8.96 ± 0.4 µM with HepG2 cells, 10.9 ± 1 µM in the data set with L-O2 cells and 5.55 ± 1.3 µM in data set [1]. For the same molecule, in the data set on HeLa cells, the GI50 turned out to be 7.58 ± 0.1 µM.
As to `COc1ccc(C(=C2C=CC(=O)C=C2)c2cc(C#Cc3ccc(O)cc3)ccc2-c2ccc(O)cc2)cc1` [Compound 2j, 4-((4′-Hydroxy-4-((4-hydroxyphenyl)ethynyl)-[1,1′-biphenyl]-2-yl)(4-methoxyphenyl)methylene)cyclohexa-2,5-dien-1-one], the IC50 in the data set with MCF-7 cells turned out to be 12.1 ± 0.1 µM; with HepG2 cells, 11.6 ± 0.6 µM; with L-O2 cells it was 11.1 ± 0.7 µM. In the data set with HeLa cells, this molecule had a 50% growth inhibitory concentration (GI50) of 4.47 ± 0.5 µM. For the same molecule, the “HIF inhibitory activity (in words)” value in data set [2] is on record as “little HIF inhibitory activity”.
As to `Cc1ccc(-c2ccc(O)cc2)c(C(=C2C=CC(=O)C=C2)c2ccccc2)c1C#Cc1ccc(O)cc1` [selaginellin A], the “cytotoxicity against H322 cell” value in the data set with H322 cell is reported as “moderately cytotoxic”. In data set [3], the “inhibitory activity on HIF-1 transcription” value is “displayed inhibitory activity”.
`Cc1ccc(-c2ccc(O)cc2)c(C(=C2C=CC(=O)C=C2)c2ccc(O)cc2)c1C#Cc1ccc(O)cc1` [selaginellin B]: the “cytotoxicity against H322 cell” value in the data set on H322 cell is on record as “moderately cytotoxic”.
